Laboratory results: US9526766B2, “Potentiation of antibiotic treatment with a protein-lipid complex” (priority 2012, dated 2016)
Values after ≈ are worked out from the molar mass of the structure shown. Read-outs that look alike come from different tables or passages of the source.

Legend:
[1] = test system: Staphylococcus aureus; assay: Minimal bactericidal concentration (MBC) from MIC plates; format: cell-based; conditions: antibiotic alone
From the text: The MBC was defined as the lowest concentration of antimicrobials yielding colony counts <0.1% (3 log10 reduction) of the initial inoculum (as determined by colony counts from the growth control well immediately after inoculation) as described.

[2] = test system: Staphylococcus aureus; assay: Bactericidal activity on planktonic cultures; format: cell-based; conditions: antibiotic alone
Method: Methodology: In late logarithmic growth phase, the bacteria were harvested by centrifugation at 12,000×g for 10 minutes and resuspended in phosphate-buffered saline (PBS; […], […], […], pH 7.4). Appropriate dilutions of the bacteria were suspended in PBS and treated with indicated concentrations of ALAFAC and/or antibiotics for various times. The effect on bacterial viability was assessed by plating serial dilutions of bacterial sample on tryptic soy agar plates containing 5% sheep blood (viable counts) and determining viable colony forming units after overnight growth at 37° C.

[3] = test system: Acinetobacter baumanni; assay: MIC by broth microdilution, antibiotics with and without ALAFAC; format: cell-based; conditions: agent alone
Method: (§1) Methodology: Minimal inhibitory concentrations (MICs) were determined in 96-well microtiter plates using the microdilution method according to approved standards of the CLSI except that Todd-Hewitt medium supplemented with 0.5% yeast extract, which yields reproducible MIC results was used as the test medium for S. pneumoniae. For the remaining species Mueller-Hinton medium was used as indicated by the CLSI standard. Each well contained two-fold dilutions of antibiotic, was seeded with a final bacterial concentration of 10^5 CFU/mL, and was incubated for 18 h at 37° C. in a Synergy II microplate reader (Biotek, Winooski, Vt.) where the OD600 was recorded every 5 minutes to monitor bacterial growth. The MIC was defined as the lowest concentration of antimicrobial agent solution at which no increase in OD600 was detected.
(§2) In vitro susceptibility tests. Minimal inhibitory concentrations (MICs) were determined in 96-well microtiter plates using the microdilution method according to approved standards of the CLSI except that Todd-Hewitt medium supplemented with 0.5% yeast extract, which yields reproducible MIC results was used as the test medium for S. pneumoniae. MICs for A. baumanni, and M. catarrhalis were determined in MH media. Two-fold dilutions of a starting antibiotic concentration was added in triplicate into microtiter plate wells (in 96-well plates), were seeded with a final bacterial concentration of ˜10^5 colony forming units (CFU)/mL, and was incubated for 18 h in ambient air at 37° C. in a Synergy II microplate reader (Biotek, Winooski, Vt.) where the OD600 was recorded every 5 minutes to monitor bacterial growth. The MIC was defined as the lowest concentration of antimicrobial agent solution at which no increase in OD600 was detected.

[4] = test system: Moraxella catarrhalis; assay: as above; format: cell-based; conditions: agent alone
Method: as §1, §2

[5] = test system: Streptococcus pneumoniae; assay: as above; format: cell-based
Method: as §1, §2

[6] = test system: Streptococcus pneumoniae biofilms; assay: Static biofilm model, viable counts; format: cell-based; conditions: for Biofilm killing: alone or combined; for Minimum antibiotic concentration for bactericidal (>3 log10) activity on biofilms: within 4-6 hours, antibiotic alone
Method: Methodology: Pneumococci were grown statically in CDM and S. aureus were grown in trypic soy medium to mid-logarithmic phase (OD600=0.5), washed, and resuspended in fresh pre-warmed medium to a density of 2×10^4 CFU in 500 μl volume, and suspensions were used to seed sterile round glass coverslips in the bottom of polystyrene 24-well plates with or without a substratum of confluent H292 epithelial cells. Biofilms were cultured at 34° C. in 5% CO2 for indicated times with change of culture media every 12 hours and to assess biomass and antibiotic resistance by viable counts (as described).
Biofilms were then washed in PBS and detached by scraping the surface in the presence of 100 μL PBS followed by a rinse with 100 μL PBS. Collected cells were sonicated in a sonication water bath for 2 s followed by vortexing twice for 20 seconds at high speed and the dispersed biofilm cells were used to determine viable CFUs per ml from diluted samples plated and grown on blood agar.
Static Biofilm Model. Pneumococci were grown in CDM to mid-logarithmic phase (OD600=0.5), washed, and resuspended in fresh pre-warmed medium to a density of 2×10^4 CFUs in 500 μl volume, and suspensions were used to seed sterile round glass coverslips in the bottom of polystyrene 24-well plates with a substratum of confluent H292 epithelial cells as described. Biofilms were cultured at 34° C. in 5% CO2 for indicated times with change of culture media every 12 hours and used for SEM studies or to assess biomass and antibiotic resistance by viable plate counts.
Biofilms were then washed in PBS, dispersed by sonication, and collected by pipetting in 100 μL PBS followed by a rinse with 100 μL PBS. Collected cells were then vortexed twice for 20 seconds at high speed and the dispersed biofilm cells were used to determine viable CFUs per ml from diluted samples plated and grown on blood agar. Results are reported as the total number of CFUs per biofilm.

[7] = test system: S. pneumoniae D39; assay: Autolysis by optical density at 600 nm; format: cell-based, Streptococcus pneumoniae
From the text: Most agents that kill pneumococci, including […] and cell wall-active anti-bacterials activate the major autolysin LytA to induce lysis of the bacteria, which can easily be detected by eye as a clearing of the bacterial suspension upon treatment and measured by a decrease in OD600 nm over time. In comparison, antibiotics acting on bacterial DNA, RNA, or protein synthesis show reduced, though still significant, levels of cell lysis. However, during our combination treatments with […] and gentamicin above we observed no detectable lysis. […] The lack of lysis from combination treatment may be beneficial for the host in reducing the host inflammation associated with bacterial components after lysis.

[8] = S. aureus NRS384, within 4-6 hours
[9] = D39 48 h biofilm (8.3 log10) on epithelial substratum, 250 μg/ml ALAFAC, 100 μg/ml penicillin
[10] = SP670 biofilm, ALAFAC 250 μg/mL, penicillin 100 μg/mL
[11] = S. pneumoniae EF3030, agent alone
[12] = S. pneumoniae in liquid culture
[13] = EF3030 48 h biofilm (7.5 log), 100 μg/mL ALAFAC, 200 μg/ml gentamicin, 3 hours
[14] = sublethal ALAFAC (50 μg/ml), low gentamicin, alone or combined

With COc1cccc(OC)c1C(=O)N[C@@H]1C(=O)N2[C@@H]1SC(C)(C)[C@@H]2C(=O)O [Methicillin, methicillin] the MBC ([1]; Staphylococcus aureus, NRS1, S. aureus NRS1, read-out: MBC) was over 256 µg/mL, the MBC ([1]; Staphylococcus aureus, NRS70, S. aureus NRS70, read-out: MBC) was 128 µg/mL (≈ 336 µM) and the MBC ([1]; Staphylococcus aureus, NRS71, S. aureus NRS71, read-out: MBC) was over 256 µg/mL. The MBC ([1]; Staphylococcus aureus, NRS100, S. aureus NRS100, read-out: MBC) was over 256 µg/mL, the MBC ([1]; Staphylococcus aureus, NRS123, S. aureus NRS123, read-out: MBC) was over 256 µg/mL and the MBC ([1]; Staphylococcus aureus, NRS384, S. aureus NRS384, read-out: MBC) was over 256 µg/mL. The MBC ([1]; Staphylococcus aureus, S. aureus 11090306, read-out: MBC) was 64 µg/mL (≈ 168 µM), the MBC ([1]; Staphylococcus aureus, S. aureus 10307570, read-out: MBC) was over 256 µg/mL and the “Minimum antibiotic concentration for bactericidal (>3 log10) activity, planktonic” value ([2]; S. aureus 10307570) was over 128 μg/ml. The “Minimum antibiotic concentration for bactericidal (>3 log10) activity, planktonic” value ([2]; S. aureus 11090306) was 64 μg/ml, the “Minimum antibiotic concentration for bactericidal (>3 log10) activity, planktonic” value ([2]; S. aureus NRS1) was over 128 μg/ml and the “Minimum antibiotic concentration for bactericidal (>3 log10) activity, planktonic” value ([2]; S. aureus NRS70) was 128 μg/ml. For the same molecule, the “Minimum antibiotic concentration for bactericidal (>3 log10) activity, planktonic” value ([2]; S. aureus NRS71) was over 128 μg/ml, the “Minimum antibiotic concentration for bactericidal (>3 log10) activity, planktonic” value ([2]; S. aureus NRS100) was over 128 μg/ml and the “Minimum antibiotic concentration for bactericidal (>3 log10) activity, planktonic” value ([2]; S. aureus NRS123) was over 128 μg/ml. The “Minimum antibiotic concentration for bactericidal (>3 log10) activity, planktonic” value [2, 8] was over 128 μg/ml.

With CC1(C)S[C@@H]2[C@H](NC(=O)Cc3ccccc3)C(=O)N2[C@H]1C(=O)O [Penicillin, penicillin G] the MIC ([3]; A. baumanni AB307) was over 100 µg/mL, the MIC ([3]; A. baumanni AB979) was over 100 µg/mL and the MIC ([3]; A. baumanni AB979, listed as penicillin) was “exceeded 100 μg/ml”. For the same molecule, the MIC ([3]; Acinetobacter, A. baumanni AB307, read-out: MIC) was over 100 µg/mL, the MIC ([4]; M. catarrhalis 7169 (MC7169)) was over 50 µg/mL and the MIC ([4]; M. catarrhalis BC8 (MCBC8)) was over 50 µg/mL. The MIC ([4]; M. catarrhalis BC8 (MCBC8), listed as penicillin) was “exceeded 50 μg/ml”, the MIC ([4]; Moraxella catarrhalis, M. catarrhalis 7169 (MC7169), read-out: MIC) was over 50 µg/mL and the MIC ([5]; Streptococcus pneumoniae, S. pneumoniae D39, agent alone, read-out: MIC) was 0.01 µg/mL. For the same molecule, the MIC ([5]; Streptococcus pneumoniae, S. pneumoniae EF3030, agent alone, read-out: MIC) was 0.01 µg/mL, the MIC ([5]; Streptococcus pneumoniae, S. pneumoniae SP670 (penicillin-resistant), agent alone, read-out: MIC) was 4 µg/mL and the Biofilm killing [6, 9] was “not bactericidal”. The “Minimum antibiotic concentration for bactericidal (>3 log10) activity on biofilms” value ([6]; S. pneumoniae D39 biofilm) was over 5000 μg/ml, the “Minimum antibiotic concentration for bactericidal (>3 log10) activity on biofilms” value ([6]; S. pneumoniae SP670 biofilm) was over 5000 μg/ml and the Biofilm killing [6, 10] was “almost complete resistance”.

gentamicin showed an MIC ([3]; A. baumanni AB307) of 36 µg/mL, an MIC ([3]; A. baumanni AB979) of 2.5 µg/mL and an MIC ([4]; M. catarrhalis 7169 (MC7169)) of 25 µg/mL. For the same molecule, the MIC ([4]; M. catarrhalis BC8 (MCBC8)) was 25 µg/mL, the MIC ([5]; S. pneumoniae D39, agent alone) was 16 µg/mL and the MIC [5, 11] was 16 µg/mL. The MIC [5, 12] was 16 µg/mL, the MBC ([1]; S. aureus NRS1) was over 256 µg/mL and the MBC ([1]; S. aureus NRS384) was 16 µg/mL. The “Minimum antibiotic concentration for bactericidal (>3 log10) activity, planktonic” value [2, 8] was 50 μg/ml, the Biofilm killing [6, 13] was 1.1 log and the Biofilm bactericidal activity ([6]; EF3030 48 h biofilm, gentamicin 200 or 500 μg/mL alone or with 100 μg/mL ALAFAC, 3 hours) was “Neither concentration of gentamicin was bactericidal”. The “Minimum antibiotic concentration for bactericidal (>3 log10) activity on biofilms” value ([6]; S. pneumoniae D39 biofilm) was over 600 μg/ml, the “Minimum antibiotic concentration for bactericidal (>3 log10) activity on biofilms” value ([6]; S. pneumoniae EF3030 biofilm) was over 600 μg/ml and the “Autolysis (OD600)” value [7, 14] was “failed to lyse”.

B1: ALAFAC: non-covalent complex of alpha-lactalbumin and fatty acid (oleic acid); labeled HAMLET or HL in drawings and tables (protein, UniProt P00709 20-142, looked up)
Alpha-lactalbumin: KQFTKCELSQLLKDIDGYGGIALPELICTMFHTSGYDTQAIVENNESTEYGLFQISNKLWCKSSQVPQSRNICDISCDKFLDDDITDDIMCAKKILDIKGIDYWLAHKALCTEKLEQWLCEKL
modifications: complexed with oleic acid
B1 gave an MIC ([5]; S. pneumoniae D39, agent alone) of 20 µg/mL, an MIC [5, 11] of 20 µg/mL and an MIC ([5]; S. pneumoniae JY53 (erythromycin-resistant), agent alone) of 20 µg/mL. For the same molecule, the MIC ([5]; S. pneumoniae SP670 (penicillin-resistant), agent alone) was 20 µg/mL, the MIC [5, 12] was “≈ 20 μg/ml” and the Biofilm killing [6, 9] was “not bactericidal”. For the same molecule, the Biofilm killing [6, 13] was “no bactericidal activity”, the Biofilm killing [6, 10] was “almost complete resistance” and the “Autolysis (OD600)” value ([7]; ALAFAC alone at a lethal concentration (250 μg/ml)) was “rapid lysis”. The “Autolysis (OD600)” value [7, 14] was “small decrease in optical density”.
